Test results reported in patent US20220089540A1 (Board of Trustees of Michigan State University, priority 2019, published 2022).
pKd: −log10 of the molar value.

Tests used:
tumors of PyMT mice [1] = assay: PyMT mouse model of triple negative breast cancer, treatment until endpoint; assay type: in vivo
Protocol: To determine if the immune modulation induced by LG268 treatment in MMTV-Neu mice could be extended to a model of triple negative breast cancer (TNBC), the inventors repeated the in vivo studies in PyMT mice. PyMT mice with a tumor volume of 32-64 mm^3 were treated with LG268 (100 mg/kg of diet) or with a control diet until the tumor burden met maximum defined endpoints allowed by the IACUC-approved animal protocol (individual tumor volume <520 mm^3). In mice receiving the control diet, these tumors progressed extremely rapidly so that the average age to reach maximum tumor volume was 31 days.

RAR receptor = conditions: cited from earlier work
lung tumors of A/J mice = assay: Vinyl carbamate-induced (Kras) lung cancer in A/J mice; assay type: in vivo, mouse
Protocol: To evaluate the effects of LG268, with and without other chemotherapeutic agents, female A/J mice were injected with a weekly dose of vinyl carbamate for twelve weeks to induce lung tumors of between 0.5 and 1 mm in diameter. A/J mice were randomized and treated with either control diet or rexinoids fed in the diet (100 mg/kg diet). One week after the treatment diets started, mice were injected with 6 cycles of carboplatin (50 mg/kg i.p.), paclitaxel (15 mg/kg i.p.), or a combination thereof, given every other week. At the end of the studies, lungs were harvested en bloc and inflated with buffered formalin (NBF); liver and plasma were collected to determine drug levels and lipid concentrations. Step sectioning (200 μm between sections) of the left lung started at the medial hilar surface, and sections were stained with hematoxylin and eosin. The number, size, and histopathology of randomized, coded tumors were assessed on two separate sections of each lung by two independent investigators. Classification of the tumors as low, medium, or high grade was based on previously published histologic and nuclear criteria. The efficacy of other rexinoids (e.g., MSU 42011) for treatment of lung cancer, alone and in combination with standard of care chemotherapy (carboplatin and paclitaxel), is currently being evaluated in this preclinical model.

RXR = conditions: read-out: Kd for RXR; cited from earlier work
tumors of PyMT mice [2] = assay: PyMT mice, 15-day protocol with or without anti-PD-L1 antibodies; assay type: in vivo, mouse
Protocol: To evaluate if LG268 treatment would have immunomodulatory effects, PyMT mice with a tumor volume of 32-64 mm^3 were treated with LG268 (100 mg/kg of diet) or control diet for 14 days (FIG. 7A). Mice were euthanized at day 15, and tumor, intact mammary gland and spleen were analyzed by flow cytometry, immunohistochemistry and immunoblotting (whole tumor lysates). At day 15, mice treated with LG268 presented higher levels of PD-L1 when compared with control mice (FIG. 7D-7E).
The inventors tested whether the combination of an immune checkpoint inhibitor and LG268 for the treatment of PyMT tumors would further increase the infiltration of cytotoxic CD8 T cells. PyMT mice with 32-64 mm3 mice were treated by intraperitoneal injection with anti-PD-L1 (40 μg/mouse) or isotype control antibodies on days 3, 7 and 11, in combination with LG268 or control diet (FIG. 7A).

Compound: Cc1cc2c(cc1C1(c3ccc(C(=O)O)cn3)CC1)C(C)(C)CCC2(C)C [LG268]
- average survival (time to maximum tumor volume) (tumors of PyMT mice [1]; 100 mg/kg diet, control 31 days): 49 days
- levels of CD206 and p-STAT3 in whole lysates of the tumors (tumors of PyMT mice [1]; at endpoint): No differences
- cells undergoing apoptosis (cleaved caspase 3) (tumors of PyMT mice [1]; immunohistochemistry at endpoint): higher number of cells undergoing apoptosis
- p-STAT1 in whole lysates of tumors (tumors of PyMT mice [1]; western blot at endpoint): tendency for lower levels
- binding to the RAR receptor (RAR receptor): does not bind
- average number of lung tumors (lung tumors of A/J mice; LG268 100 mg/kg diet 12 weeks, C 50 mg/kg i.p., P 15 mg/kg i.p., 6 injections, control 3.4±0.25): 2.2±0.28
- average tumor size (lung tumors of A/J mice; control 0.58±0.09 mm^3): 0.24±0.03 mm^3
- average tumor burden (lung tumors of A/J mice; control 1.99±0.34 mm^3): 0.52±0.12 mm^3
- percentage of high grade tumors (lung tumors of A/J mice; control 71%): 52%
- decrease of average tumor size vs controls (lung tumors of A/J mice; mouse, in vivo): 59%
- diminution of average tumor burden vs control (lung tumors of A/J mice; mouse, in vivo): 74%
- PD-L1 levels in tumors vs control (tumors of PyMT mice [2]; 100 mg/kg diet, day 15): higher levels
- immune cell populations infiltrating to the tumors (tumors of PyMT mice [2]; LG268 alone, day 15): did not induce any changes
- spleen weight vs control diet (tumors of PyMT mice [2]; LG268 only): significant decrease
